Data set [1] has as its system human lung cancer cell A549. Kind of data set: Inhibitory activity against proliferation of oncocyte, A549 (MTT method). It counts as cell-based. Particulars: 72 h. Here is the method: (§1) Mouse leukemic cell P388, mouse colonic cancer cell Colon 38, human rhinopharyngeal cancer cell KB and human lung cancer cell A549 were used as the oncocytes. […] The microplate was placed in a carbon dioxide incubator containing 5% of CO2 and incubated at 37° C. for one day. The DMSO solution of the compound according to the present invention was diluted with the culture medium to prepare the serial dilutions of the compound. These dilutions were added to the above wells in a predetermined amount. The resulting plate was cultured at 37° C. for 3 days. […] The number of viable cells was determined according to the method of M. C.
On the technique in general: Tetrazolium dyes change colour on reduction, which living cells bring about.

The test system of the next data set is Mouse P388 leukemia. Kind of data set: Activity against experimental tumor transplanted to mouse (P388 leukemia). It counts as in vivo. Particulars: for MST / T/C: i.p., once a day for four days; for ratio of the maximum effective dose to the minimum one: tumor bearing mouse (CDF1). Here is the method:
P388 cells (1×10^6) were inoculated into the abdominal cavity of a female CDF1 mouse of 7 weeks of age and a test drug was administered to the mouse once a day for four days from the next day.
Each test drug was administered intraperitoneally in a state dissolved or suspended in a 4% solution of NaHCO3 in physiological saline, while only a 4% solution of NaHCO3 in physiological saline was administered to a control group. Each control group was composed of ten mice, while each medicated group was composed of six mice. The antitumor activity was evaluated based on the T/C value calculated according to the following formula: [formula]
The measurement was conducted according to the method of R. I. Geran et al. (see Cancer Chemotherapy Reports (Part 3), 31 (1972)).

Data set [2] concerns mouse colonic cancer cell Colon 38. Kind of data set: Inhibitory activity against proliferation of oncocyte, Colon 38 (MTT method). It counts as cell-based. Conditions: 72 h. Here is the method:
as §1

The subject of a further data set is Mouse leukemic cell P388. Kind of data set: Inhibitory activity against proliferation of oncocyte, P388 (MTT method). It counts as cell-based. Particulars: 72 h. Here is the method:
as §1

In data set [3] the test system is human rhinopharyngeal cancer cell KB. Briefly: Inhibitory activity against proliferation of oncocyte, KB (MTT method). It counts as cell-based. Conditions: 72 h. How it is done:
as §1

Data set [4] addresses T1, dihydrofolate reductase (DHFR) (Mus musculus, UniProt P00375).
T1 construct: DHFR was prepared from mouse leukemic cell P388; endogenous in cells; host or cells: P388 mouse leukemia cells (enzyme purified from the cells)
T1 sequence (P00375 1-187): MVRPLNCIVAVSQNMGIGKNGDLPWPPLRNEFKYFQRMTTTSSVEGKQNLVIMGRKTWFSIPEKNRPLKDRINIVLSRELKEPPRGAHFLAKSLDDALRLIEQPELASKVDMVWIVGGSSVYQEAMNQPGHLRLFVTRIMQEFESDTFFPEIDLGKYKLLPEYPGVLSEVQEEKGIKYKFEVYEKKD
Kind of data set: Inhibitory activity against dihydrofolate reductase (DHFR). It counts as biochemical. Here is the method:
DHFR was prepared from mouse leukemic cell P388 according to the method of J. M. Whiteley et al. [see Arch.
A solution of purified DHFR was added to a solution comprising a potassium phosphate buffer solution (pH: 7.5, 75 mM), mercaptoethanol (7.5 mM) and NADPH (0.25 mM) to make up to a total amount of 0.57 mi. Each of the serial dilutions of the compound according to the present invention in an amount of 0.015 ml was added to the mixture prepared above. […] The obtained mixtures were kept at 37° C. for 5 minutes to conduct a reaction.

Data set [5] relates to dihydrofolate reductase (DHFR). Particulars: in words; cited from earlier work.
The conditions of data set [6]: in words; cited from earlier work.
For a further data set, the system named is LX-1. Briefly: Inhibitory activity against proliferation of oncocyte, LX-1. It counts as cell-based. Conditions: Homo sapiens, 72 h, Table 2-B, 3 days.
Setting [7] is: read-out: 50% cell proliferation-inhibitory concentration (IC50), Table 2-A, 3 days.
The mark [8] stands for this setting: read-out: 50% cell proliferation-inhibitory concentration (IC50), Table 2-A, KB, 3 days.
[9] abbreviates: Table 2-B, 3 days, read-out: Proliferation-inhibitory activity IC50.
[10] abbreviates: Table 2-B, KB, 3 days, read-out: Proliferation-inhibitory activity IC50.

Read-outs that look alike come from different tables or passages of the source.

In the case of `Nc1nc(N)c2c(ccn2CCCc2ccc(C(=O)N[C@@H](CCC(=O)O)C(=O)O)cc2)n1` [Ex. 2, N-[4-[3-(2,4-Diaminopyrrolo[3,2-d]pyrimidin-5-yl)propyl]benzoyl]-L-glutamat], the IC50 in [1] (setting [7]) is 19 nM; in [2] (setting [7]), 40 nM; in the data set on Mouse leukemic cell P388 (setting [7]) it was 12 nM; in data set [3] (setting [8]) it was 9.8 nM; in [4] it was 97 nM. In addition, the MST was found to be 13.3 ± 0.47 in the data set with Mouse P388 leukemia (Table 3-A, 3.13 mg/kg); 13.5 ± 0.50 with Mouse P388 leukemia (Table 3-A, 6.25 mg/kg); 14.0 ± 0.71 with Mouse P388 leukemia (Table 3-A, 25.0 mg/kg); 14.8 ± 0.83 with Mouse P388 leukemia (Table 3-A, 50.0 mg/kg); 14.8 ± 0.83 with Mouse P388 leukemia (Table 3-A, 100.0 mg/kg); 16.0 ± 0.82 with Mouse P388 leukemia (Table 3-A, 200.0 mg/kg). Besides, the T/C in the data set on Mouse P388 leukemia (Table 3-A, 3.13 mg/kg) turned out to be 148%; in the data set on Mouse P388 leukemia (Table 3-A, 6.25 mg/kg) it was 150%; with Mouse P388 leukemia (Table 3-A, 25.0 mg/kg) it was 156%; with Mouse P388 leukemia (Table 3-A, 50.0 mg/kg), 164%; in the data set on Mouse P388 leukemia (Table 3-A, 100.0 mg/kg), 164%; in the data set on Mouse P388 leukemia (Table 3-A, 200.0 mg/kg) it was 178%. Also, the “ratio of the maximum effective dose to the minimum one” value with Mouse P388 leukemia was “about 60”.
For `CCC(CCn1ccc2nc(N)nc(N)c21)c1ccc(C(=O)N[C@@H](CCC(=O)O)C(=O)O)cc1` (stereo partly drawn) [Ex. 6, N-[4-[3-(2,4-Diaminopyrrolo[3,2-d]pyrimidin-5-yl)-1-ethylpropyl]benzoyl]-L-glutamate], the IC50 in data set [1] (setting [7]) stood at 940 nM; in [2] (setting [7]), 340 nM; with Mouse leukemic cell P388 (setting [7]), 12 nM; in data set [3] (setting [8]) it was 30 nM; in [4], 1000 nM.
`Nc1nc(N)c2c(n1)CCC2CCCc1ccc(C(=O)N[C@@H](CCC(=O)O)C(=O)O)cc1` (some centres unmarked) [Ex. 108]: the IC50 amounted to 9.3 nM in [1] (setting [9]), 4.1 nM in data set [2] (setting [9]), 2.7 nM with Mouse leukemic cell P388 (setting [9]) and 1.6 nM in data set [3] (setting [10]). For the same molecule, the T/C with Mouse P388 leukemia (Table 3-B, 0.20 mg/kg) was found to be 133%; in the data set with Mouse P388 leukemia (Table 3-B, 0.78 mg/kg) it was 150%; with Mouse P388 leukemia (Table 3-B, 3.13 mg/kg), 170%.
For the molecule `CN(Cc1cnc2nc(N)nc(N)c2n1)c1ccc(C(=O)N[C@@H](CCC(=O)O)C(=O)O)cc1` [MTX, Methotrexate, reference compound], the “inhibitory activity against dihydrofolate reductase (DHFR)” value in [5] is recorded as “high inhibitory activity”. The IC50 in [1] (setting [9]) was determined as 88 nM; in data set [1] (setting [7]), 80 nM; in [2] (setting [9]) it was 28 nM; in [2] (setting [7]) it was 60 nM; with Mouse leukemic cell P388 (setting [9]) it was 22 nM; with Mouse leukemic cell P388 (setting [7]), 16 nM. Further, the IC50 in data set [3] (setting [10]) was found to be 11 nM; in data set [3] (read-out: 50% cell proliferation-inhibitory concentration (IC50)) it was 20 nM. For the same molecule, the potent adverse effects entry in [6] was “bone marrow suppression and degradation of the intestinal epithelium”.
In the case of `Nc1nc(N)c2c(n1)CCC2CCCc1ccc(C(=O)N[C@@H](CCC(=O)O)C(=O)O)s1` (stereo partly drawn) [Ex. 105, N-{5-[3-(2,4-diamino-6,7-dihydro-5H-cyclopenta[d]pyrimidin-5-yl)propyl]-2-thenoyl}-L-glutamic acid], the IC50 in [1] (setting [9]) turned out to be 2.4 nM; in [2] (setting [9]), 0.87 nM; with Mouse leukemic cell P388 (setting [9]), 1.8 nM; in [3] (setting [10]), 0.92 nM; in data set [4], 4 nM; in the data set on LX-1, 0.67 nM. The T/C in the data set on Mouse P388 leukemia (Table 3-B, 0.05 mg/kg) turned out to be 126%; in the data set on Mouse P388 leukemia (Table 3-B, 0.20 mg/kg) it was 151%; with Mouse P388 leukemia (Table 3-B, 0.78 mg/kg) it was 176%; in the data set on Mouse P388 leukemia (Table 3-B, 3.13 mg/kg), 151%.
Regarding `CCC(Cn1ccc2nc(N)nc(N)c21)c1ccc(C(=O)N[C@@H](CCC(=O)O)C(=O)O)cc1` (stereo partly drawn) [Ex. 9, N-[4-[2-(2,4-Diaminopyrrolo[3,2-d]pyrimidin-5-yl)-1-ethylethyl]benzoyl]-L-glutamate], the IC50 in data set [1] (setting [7]) turned out to be 100 nM; in data set [2] (setting [7]), 39 nM; in the data set with Mouse leukemic cell P388 (setting [7]), 17 nM; in [3] (setting [8]), 32 nM; in data set [4], 30 nM. For the same molecule, the MST in the data set with Mouse P388 leukemia (Table 3-A, 0.78 mg/kg) came to 16.3 ± 1.02; with Mouse P388 leukemia (Table 3-A, 3.13 mg/kg), 14.8 ± 0.83; in the data set on Mouse P388 leukemia (Table 3-A, 50.0 mg/kg) it was 15.0 ± 0.71. In addition, the T/C in the data set with Mouse P388 leukemia (Table 3-A, 0.78 mg/kg) came to 181%; in the data set with Mouse P388 leukemia (Table 3-A, 3.13 mg/kg) it was 164%; with Mouse P388 leukemia (Table 3-A, 50.0 mg/kg), 167%. For the same molecule, in the data set on Mouse P388 leukemia, the “ratio of the maximum effective dose to the minimum one” value was “about 60”.
On to `Nc1nc(N)c2c(n1)CCC2CCc1ccc(C(=O)N[C@@H](CCC(=O)O)C(=O)O)cc1` (stereo partly drawn) [Ex. 103, N-{4-[2-(2,4-diamino-6,7-dihydro-5H-cyclopenta[d]pyrimidin-5-yl)ethyl]benzoyl}-L-glutamic], for which the IC50 in [1] (setting [9]) worked out at 9.8 nM; in data set [2] (setting [9]), 8.9 nM; in the data set on Mouse leukemic cell P388 (setting [9]), 7.7 nM; in data set [3] (setting [10]), 3.8 nM; in [4], 72 nM. In addition, the T/C in the data set with Mouse P388 leukemia (Table 3-B, 0.78 mg/kg) was determined as 129%; in the data set on Mouse P388 leukemia (Table 3-B, 3.13 mg/kg), 135%; in the data set on Mouse P388 leukemia (Table 3-B, 50 mg/kg), 148%.
Consider `CC(CCn1ccc2nc(N)nc(N)c21)c1ccc(C(=O)N[C@@H](CCC(=O)O)C(=O)O)cc1` (stereo partly drawn) [Ex. 4, N-[4-[3-(2,4-Diaminopyrrolo[3,2-d]pyrimidin-5-yl)-1-methylpropyl]benzoyl]-L-glutamate], for which the IC50 is 63 nM in [1] (setting [7]); 129 nM in [2] (setting [7]); 16 nM in the data set with Mouse leukemic cell P388 (setting [7]); 31 nM in [3] (setting [8]); 90 nM in data set [4]. In addition, the MST in the data set with Mouse P388 leukemia (Table 3-A, 50.0 mg/kg) was 18.5 ± 1.12. Besides, the T/C in the data set on Mouse P388 leukemia (Table 3-A, 50.0 mg/kg) was found to be 185%.

Usually T/C stands for the result in the treated group divided by that in the control group, in per cent.

Source of the values: patent US5554615A, “Condensed pyrimidine derivative” (Eisai Co., Ltd., priority 1991, dated 1996).
